Data set [1] is described as follows: Solubility in aqueous solutions (Table 3). It is filed as physicochemical. To be noted: aqueous solution. Here is the method: The skilled person understands that the pH of the gastrointestinal tract changes along its length. […] For more detail see, for example, Measurement of gastrointestinal pH profiles in normal ambulant human subjects, Gut. […] Improved solubility is expected to result in improved absorption, and therefore improved oral bioavailability.
In an embodiment prodrugs of the invention are administered intravenously. High prodrug solubility is advantageous in order to reduce the volume of solution administered to the patient, and to reduce the risk of damage to the circulatory system. Solubility of >10 mg/mL is preferred.

The next data set deals with T1, hERG K+ channel (Homo sapiens, UniProt Q12809).
T1 construct: a Chinese Hamster Lung cell line stably expressing the full length hERG channel; expressed in transfected cells; host or cells: Chinese Hamster Lung cell line
Briefly: hERG assay, IonWorks patch clamp electrophysiology. It is filed as cell-based. To be noted: human, pH 7.3; 11 uM; Chinese Hamster Lung cell line stably expressing hERG. Here is the method:
(§1) Compounds of the invention were tested for inhibition of the human ether a go-go related gene (hERG) K^+ channel using IonWorks patch clamp electrophysiology. 8 Point concentration-response curves were generated on two occasions using 3-fold serial dilutions from the maximum assay concentration (33 uM). Electrophysiological recordings were made from a Chinese Hamster Lung cell line stably expressing the full length hERG channel. Single cell ion currents were measured in the perforated patch clamp configuration (100 ug/mL amphoterocin) at room temperature using an IonWorks Quattro instrument. The internal solution contained 140 mM KCl, 1 mM MgCl2, 1 mM EGTA and 20 mM HEPES and was buffered to pH 7.3. The external solution contained 138 mM NaCl, 2.7 mM KCl, 0.9 mM CaCl2, 0.5 mM MgCl2, 8 mM Na2HPO4 and 1.5 mM KH2PO4, and was buffered to pH 7.3. Cells were clamped at a holding potential of […] for 30 s and then stepped to +40 mV for 1 s. This was followed by a hyperpolarising step of 1 s to […] to evoke the hERG tail current. This sequence was repeated 5 times at a frequency of 0.25 Hz. Currents were measured from the tail step at the 5th pulse, and referenced to the holding current. Compounds were incubated for 6-7 min prior to a second measurement of the hERG signal using an identical pulse train. A minimum of 17 cells were required for each pIC50 curve fit. A control compound (quinidine) was used.
Background: Block of hERG is tested as a sign of cardiac risk.

Data set [2] deals with T2, human ether a go-go related gene (hERG) K+ channel (Homo sapiens, UniProt Q12809).
T2 construct: a Chinese Hamster Lung cell line stably expressing the full length hERG channel; expressed in transfected cells; host or cells: Chinese Hamster Lung cell line
Briefly: hERG assay, IonWorks patch clamp electrophysiology. Type of data set: cell-based. To be noted: Chinese Hamster Lung cell line stably expressing hERG; IonWorks Quattro. How it is done:
as §1

Data set [3] is described as follows: Pharmacokinetics: exposure of tonabersat in plasma after oral or intravenous dosing of prodrugs to rats. To be noted: fasted male Sprague Dawley rats; for % exposure of tonabersat after dosing the prodrugs of the invention via: Intravenous dosing (iv): compared to equimolar amount of tonabersat (0.78 mg/kg intravenous dosing); for % exposure of tonabersat after dosing the prodrugs of the invention via: Oral dosing (po): compared to equimolar amount of tonabersat (5.00 mg/kg oral dosing). It is filed as in vivo. Here is the method: Example Prodrugs of the claimed invention were dosed either intravenously or orally to fasted male Sprague Dawley rats. The rats underwent surgery for jugular vein cannulation 48 h prior to dosing. Following dosing, 0.25 mL blood samples were taken via the cannulae at 0, 5, 10, 20, 30, 45, 60, 120, 240 & 360 min in EDTA coated tubes. Tubes were spun at 13,000 rpm for 4 min and 100 ul of supernatant taken immediately and stored at −80° C. prior to analysis. Plasma samples were analysed by LC-MS/MS following extraction by protein precipitation, and levels of parent prodrug and tonabersat were measured by MRM (Multiple Reaction Monitoring) analysis against an extracted calibration curve of plasma samples spiked with the Example prodrug and tonabersat.
The exposure of tonabersat in plasma following dosing of the prodrugs of the invention was compared directly to the exposure observed following dosing of an equimolar amount of tonabersat under analogous assay conditions (5.00 mg/kg oral dosing or 0.78 mg/kg intravenous dosing). In an embodiment prodrugs of the present invention have >10% exposure of tonabersat obtained following either oral or intravenous dosing of the prodrug to a human or animal subject, compared to the exposure obtained from dosing an equimolar amount of tonabersat itself. In an embodiment the exposure of tonabersat following dosing of the prodrugs is >20%, or >30%, or >40%, or >50%, or preferably >70% compared to the exposure obtained from dosing an equimolar amount of tonabersat itself.

Data set [4] concerns unique stereo-selective site in rat and human brains. The note with it: cited from earlier work.
The test system is the same in data set [5]. To be noted: cited from earlier work. The source holds these as a separate data set.
For data set [6], the system named is high K+ evoked CSD. The note with it: cats; cited from earlier work.
In data set [7] the test system is high K+ evoked CSD. The note with it: rats; cited from earlier work.

Each structure is given as a SMILES string. Like-named read-outs stand apart in the source and are kept apart here.

T1 sequence (Q12809 whole entry): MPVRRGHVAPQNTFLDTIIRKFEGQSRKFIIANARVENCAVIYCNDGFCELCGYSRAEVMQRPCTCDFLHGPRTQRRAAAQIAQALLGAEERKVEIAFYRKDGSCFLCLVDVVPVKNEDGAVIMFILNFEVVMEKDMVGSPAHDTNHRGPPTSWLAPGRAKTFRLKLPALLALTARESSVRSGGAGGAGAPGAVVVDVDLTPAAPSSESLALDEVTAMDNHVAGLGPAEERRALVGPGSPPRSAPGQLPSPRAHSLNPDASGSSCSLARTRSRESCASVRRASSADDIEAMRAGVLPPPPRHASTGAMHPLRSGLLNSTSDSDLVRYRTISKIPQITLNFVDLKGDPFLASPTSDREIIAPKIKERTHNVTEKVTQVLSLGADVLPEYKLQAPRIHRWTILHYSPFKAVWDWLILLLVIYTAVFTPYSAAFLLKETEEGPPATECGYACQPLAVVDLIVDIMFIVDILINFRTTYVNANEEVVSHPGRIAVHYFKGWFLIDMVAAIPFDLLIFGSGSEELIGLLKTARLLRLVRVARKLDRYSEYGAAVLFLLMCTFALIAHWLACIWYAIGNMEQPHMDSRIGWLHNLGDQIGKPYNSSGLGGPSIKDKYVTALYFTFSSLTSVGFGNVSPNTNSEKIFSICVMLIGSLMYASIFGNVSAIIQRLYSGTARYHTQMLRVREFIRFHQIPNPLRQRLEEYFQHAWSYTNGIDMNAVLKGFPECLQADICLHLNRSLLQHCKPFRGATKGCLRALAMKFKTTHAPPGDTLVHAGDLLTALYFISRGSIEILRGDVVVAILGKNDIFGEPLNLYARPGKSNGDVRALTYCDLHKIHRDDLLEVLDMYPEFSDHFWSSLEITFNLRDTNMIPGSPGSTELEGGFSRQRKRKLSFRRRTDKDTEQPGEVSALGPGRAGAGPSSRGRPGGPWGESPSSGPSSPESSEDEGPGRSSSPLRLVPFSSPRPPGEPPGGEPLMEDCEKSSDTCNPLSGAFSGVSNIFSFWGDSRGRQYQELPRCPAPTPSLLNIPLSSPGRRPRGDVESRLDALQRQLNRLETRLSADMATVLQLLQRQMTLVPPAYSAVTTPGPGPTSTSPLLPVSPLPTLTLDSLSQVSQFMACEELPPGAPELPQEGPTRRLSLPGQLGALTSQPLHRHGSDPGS
T2 sequence (Q12809 whole entry): as above

Take `CC(=O)c1ccc2c(c1)[C@H](NC(=O)c1ccc(F)c(Cl)c1)[C@H](OC(=O)OCCN(C)C)C(C)(C)O2` [Example 1, (3S,4S)-6-Acetyl-4-[(3-chloro-4-fluorobenzene)amido]-2,2-dimethyl-3,4-dihydro-2H-1-benzopyran-3-yl 2-(dimethylamino)ethyl carbonate]: in data set [1] (aqueous buffer, pH not given), the solubility – broadly, the dissolved amount per volume that the medium holds – was below 1000 µg/mL. Moreover, testing at 11 µM at hERG K+ channel gave an inhibition of 25%. Further, in data set [2], the IC50 (as a rule, the concentration at which inhibition is half-maximal) was above 20 µM.

The compound `CC(=O)c1ccc2c(c1)[C@H](NC(=O)c1ccc(F)c(Cl)c1)[C@H](OC(=O)OCCN1CCOCC1)C(C)(C)O2` [Example 4, (3S,4S)-6-Acetyl-4-[(3-chloro-4-fluorobenzene)amido]-2,2-dimethyl-3,4-dihydro-2H-1-benzopyran-3-yl 2-(morpholin-4-yl)ethyl carbonate] displayed a solubility in data set [1] (aqueous buffer, pH not given) below 1000 µg/mL. In data set [2], this compound registered an IC50 of 9.8 µM.

`CC(=O)c1ccc2c(c1)[C@H](NC(=O)c1ccc(F)c(Cl)c1)[C@H](OC(=O)N[C@H](C(=O)O)C(C)C)C(C)(C)O2` [Example 8, (2S)-2-[({[(3S,4S)-6-Acetyl-4-[(3-chloro-4-fluorobenzene)amido]-2,2-dimethyl-3,4-dihydro-2H-1-benzopyran-3-yl]oxy}carbonyl)amino]-3-methylbutanoic acid] gave a solubility in data set [1] (aqueous buffer, pH not given) below 1000 µg/mL. In data set [3], the “% exposure of tonabersat after dosing the prodrugs of the invention via: Intravenous dosing (iv)” value (shortened to “% exposure of tonabersat … (iv)”) is recorded as “<LLOQ” and the “% exposure of tonabersat after dosing the prodrugs of the invention via: Oral dosing (po)” value (shortened to “% exposure of tonabersat … (po)”) was “<LLOQ”.

The compound `CC(=O)c1ccc2c(c1)[C@H](NC(=O)c1ccc(F)c(Cl)c1)[C@H](OC(=O)N[C@@H](CCCCN)C(=O)O)C(C)(C)O2.Cl` [Example 9, (2S)-2-[({[(3S,4S)-6-acetyl-4-[(3-chloro-4-fluorobenzene)amido]-2,2-dimethyl-3,4-dihydro-2H-1-benzopyran-3-yl]oxy}carbonyl)amino]-6-aminohexanoic acid hydrochloride] gave a solubility in data set [1] (pH 4.9, aqueous buffer) of 10000 µg/mL. Also, in data set [3], the “% exposure of tonabersat … (iv)” value was “<LLOQ” and the “% exposure of tonabersat … (po)” value is given as “<LLOQ”. For the same compound, on hERG K+ channel, the inhibition – broadly, the drop in the measured response relative to a control, in per cent – at 11 µM is 8%.

Compound `CC(=O)c1ccc2c(c1)[C@H](NC(=O)c1ccc(F)c(Cl)c1)[C@H](OC(=O)N1CCC(N3CCCCC3)CC1)C(C)(C)O2.Cl` [Example 18, (3S,4S)-6-Acetyl-4-[(3-chloro-4-fluorobenzene)amido]-2,2-dimethyl-3,4-dihydro-2H-1-benzopyran-3-yl 4-(piperidin-1-yl)piperidine-1-carboxylate hydrochloride] gave a solubility in data set [1] (pH 6.3, aqueous buffer) above 10000 µg/mL. Further, in data set [3], the “% exposure of tonabersat … (iv)” value is “<LLOQ” and the “% exposure of tonabersat … (po)” value is reported as “<LLOQ”. Also, at 11 µM the inhibition against hERG K+ channel was 28%.

Take `CC(=O)c1ccc2c(c1)[C@H](NC(=O)c1ccc(F)c(Cl)c1)[C@H](OC(=O)OCCN1CCCCC1)C(C)(C)O2` [Example 30, (3S,4S)-6-Acetyl-4-[(3-chloro-4-fluorobenzene)amido]-2,2-dimethyl-3,4-dihydro-2H-1-benzopyran-3-yl 2-(piperidin-1-yl)ethyl carbonate]: the IC50 in data set [2] was 7 µM.

As to `CC(=O)c1ccc2c(c1)[C@H](NC(=O)c1ccc(F)c(Cl)c1)[C@H](O)C(C)(C)O2` [Tonabersat, N-[(3S,4S)-6-Acetyl-3-hydroxy-2,2-dimethyl-3,4-dihydro-2H-1-benzopyran-4-yl]-3-chloro-4-fluorobenzamide], the “binding affinity to brain site” value in data set [4] and in data set [5] was “high affinity” throughout. The “inhibition of high K+ evoked CSD” value with high K+ evoked CSD [6] and in the data set on high K+ evoked CSD [7] was “inhibits” in each case.

Source of the values: patent US20160016929A1, “PRO-DRUG COMPOUNDS” (PROXIMAGEN LIMITED, priority 2013, published 2016).
